# Experimental data reported in ChEMBL document CHEMBL4507301 (2021).
# Columns and labels:
# [1] = molecular target: Tyrosine-protein kinase ABL1 (Homo sapiens) (UniProt P00519); conditions: Compound concentration 1000.0 nM
# [2] = molecular target: Activin receptor type-1 (Homo sapiens) (UniProt Q04771); conditions: Compound concentration 1000.0 nM
# [3] = tested on: ALK tyrosine kinase receptor (Homo sapiens), Q9UM73 [L1196M]; conditions: Compound concentration 1000.0 nM
# [4] = molecular target: BMP-2-inducible protein kinase (Homo sapiens) (UniProt Q9NSY1); conditions: Compound concentration 1000.0 nM
# [5] = molecular target: Bone morphogenetic protein receptor type-1A (Homo sapiens) (UniProt P36894); conditions: Compound concentration 1000.0 nM
# [6] = molecular target: Protein-tyrosine kinase 6 (Homo sapiens) (UniProt Q13882); conditions: Compound concentration 1000.0 nM
# [7] = molecular target: Mitotic checkpoint serine/threonine-protein kinase BUB1 (Homo sapiens) (UniProt O43683); conditions: Compound concentration 1000.0 nM
# [8] = molecular target: Calcium/calmodulin-dependent protein kinase type II subunit alpha (Homo sapiens) (UniProt Q9UQM7); conditions: Compound concentration 1000.0 nM
# [9] = molecular target: Peripheral plasma membrane protein CASK (Homo sapiens) (UniProt O14936); conditions: Compound concentration 1000.0 nM
# [10] = molecular target: Megakaryocyte-associated tyrosine-protein kinase (Homo sapiens) (UniProt P42679); conditions: Compound concentration 1000.0 nM
# [11] = molecular target: Serine/threonine-protein kinase DCLK1 (Homo sapiens) (UniProt O15075); conditions: Compound concentration 1000.0 nM
# [12] = molecular target: Ephrin type-B receptor 6 (Homo sapiens) (UniProt O15197); conditions: Compound concentration 1000.0 nM
# [13] = molecular target: Mitogen-activated protein kinase 3 (Homo sapiens) (UniProt P27361); conditions: Compound concentration 1000.0 nM
# [14] = molecular target: Mitogen-activated protein kinase 6 (Homo sapiens) (UniProt Q16659); conditions: Compound concentration 1000.0 nM
# [15] = molecular target: Vascular endothelial growth factor receptor 1 (Homo sapiens) (UniProt P17948); conditions: Compound concentration 1000.0 nM
# [16] = tested on: Receptor-type tyrosine-protein kinase FLT3 (Homo sapiens), P36888 [UNDEFINED MUTATION]; conditions: Compound concentration 1000.0 nM
# [17] = molecular target: Receptor-type tyrosine-protein kinase FLT3 (Homo sapiens) (UniProt P36888); conditions: Compound concentration 1000.0 nM
# [18] = molecular target: Beta-adrenergic receptor kinase 1 (Homo sapiens) (UniProt P25098); conditions: Compound concentration 1000.0 nM
# [19] = molecular target: G protein-coupled receptor kinase 3 (Homo sapiens) (UniProt P35626); conditions: Compound concentration 1000.0 nM
# [20] = molecular target: Rhodopsin kinase GRK7 (Homo sapiens) (UniProt Q8WTQ7); conditions: Compound concentration 1000.0 nM
# [21] = molecular target: LIM domain kinase 1 (Homo sapiens) (UniProt P53667); conditions: Compound concentration 1000.0 nM
# [22] = molecular target: Misshapen-like kinase 1 (Homo sapiens) (UniProt Q8N4C8); conditions: Compound concentration 1000.0 nM
# [23] = molecular target: Serine/threonine-protein kinase 3 (Homo sapiens) (UniProt Q13188); conditions: Compound concentration 1000.0 nM
# [24] = molecular target: Myosin light chain kinase, smooth muscle (Homo sapiens) (UniProt Q15746); conditions: Compound concentration 1000.0 nM
# [25] = molecular target: Serine/threonine-protein kinase Nek11 (Homo sapiens) (UniProt Q8NG66); conditions: Compound concentration 1000.0 nM
# [26] = molecular target: Serine/threonine-protein kinase Nek6 (Homo sapiens) (UniProt Q9HC98); conditions: Compound concentration 1000.0 nM
# [27] = molecular target: Serine/threonine-protein kinase NIM1 (Homo sapiens) (UniProt Q8IY84); conditions: Compound concentration 1000.0 nM
# [28] = molecular target: Serine/threonine-protein kinase PAK 4 (Homo sapiens) (UniProt O96013); conditions: Compound concentration 1000.0 nM
# [29] = molecular target: Cyclin-dependent kinase 18 (Homo sapiens) (UniProt Q07002); conditions: Compound concentration 1000.0 nM
# [30] = molecular target: Serine/threonine-protein kinase N2 (Homo sapiens) (UniProt Q16513); conditions: Compound concentration 1000.0 nM
# [31] = molecular target: Serine/threonine-protein kinase D2 (Homo sapiens) (UniProt Q9BZL6); conditions: Compound concentration 1000.0 nM
# [32] = molecular target: Serine/threonine-protein kinase RIO3 (Homo sapiens) (UniProt O14730); conditions: Compound concentration 1000.0 nM
# [33] = molecular target: Ribosomal protein S6 kinase alpha-4 (Homo sapiens) (UniProt O75676); conditions: Compound concentration 1000.0 nM
# [34] = molecular target: Ribosomal protein S6 kinase alpha-5 (Homo sapiens) (UniProt O75582); conditions: Compound concentration 1000.0 nM
# [35] = molecular target: Ribosomal protein S6 kinase alpha-2 (Homo sapiens) (UniProt Q15349); conditions: Compound concentration 1000.0 nM
# [36] = molecular target: Ribosomal protein S6 kinase alpha-2 (Homo sapiens) (UniProt Q15349); conditions: Compound concentration 1000.0 nM; remark: listed apart in the source
# [37] = molecular target: Serine/threonine-protein kinase SIK1 (Homo sapiens) (UniProt P57059); conditions: Compound concentration 1000.0 nM
# [38] = molecular target: SRSF protein kinase 3 (Homo sapiens) (UniProt Q9UPE1); conditions: Compound concentration 1000.0 nM
# [39] = molecular target: Serine/threonine-protein kinase 35 (Homo sapiens) (UniProt Q8TDR2); conditions: Compound concentration 1000.0 nM
# [40] = molecular target: Tyrosine-protein kinase Tec (Homo sapiens) (UniProt P42680); conditions: Compound concentration 1000.0 nM
# [41] = molecular target: Tyrosine-protein kinase receptor Tie-1 (Homo sapiens) (UniProt P35590); conditions: Compound concentration 1000.0 nM
# [42] = molecular target: Dual specificity protein kinase TTK (Homo sapiens) (UniProt P33981); conditions: Compound concentration 1000.0 nM
# [43] = molecular target: Serine/threonine-protein kinase WNK1 (Homo sapiens) (UniProt Q9H4A3); conditions: Compound concentration 1000.0 nM
# [44] = molecular target: Mu-type opioid receptor (Homo sapiens) (UniProt P35372); conditions: Compound concentration 10.0 uM
# [45] = molecular target: Delta-type opioid receptor (Homo sapiens) (UniProt P41143); conditions: Compound concentration 10.0 uM
# [46] = molecular target: Sigma intracellular receptor 2 (Homo sapiens) (UniProt Q5BJF2); conditions: Compound concentration 10.0 uM
# Chain of Ribosomal protein S6 kinase alpha-2 (Homo sapiens) (Q15349 whole entry): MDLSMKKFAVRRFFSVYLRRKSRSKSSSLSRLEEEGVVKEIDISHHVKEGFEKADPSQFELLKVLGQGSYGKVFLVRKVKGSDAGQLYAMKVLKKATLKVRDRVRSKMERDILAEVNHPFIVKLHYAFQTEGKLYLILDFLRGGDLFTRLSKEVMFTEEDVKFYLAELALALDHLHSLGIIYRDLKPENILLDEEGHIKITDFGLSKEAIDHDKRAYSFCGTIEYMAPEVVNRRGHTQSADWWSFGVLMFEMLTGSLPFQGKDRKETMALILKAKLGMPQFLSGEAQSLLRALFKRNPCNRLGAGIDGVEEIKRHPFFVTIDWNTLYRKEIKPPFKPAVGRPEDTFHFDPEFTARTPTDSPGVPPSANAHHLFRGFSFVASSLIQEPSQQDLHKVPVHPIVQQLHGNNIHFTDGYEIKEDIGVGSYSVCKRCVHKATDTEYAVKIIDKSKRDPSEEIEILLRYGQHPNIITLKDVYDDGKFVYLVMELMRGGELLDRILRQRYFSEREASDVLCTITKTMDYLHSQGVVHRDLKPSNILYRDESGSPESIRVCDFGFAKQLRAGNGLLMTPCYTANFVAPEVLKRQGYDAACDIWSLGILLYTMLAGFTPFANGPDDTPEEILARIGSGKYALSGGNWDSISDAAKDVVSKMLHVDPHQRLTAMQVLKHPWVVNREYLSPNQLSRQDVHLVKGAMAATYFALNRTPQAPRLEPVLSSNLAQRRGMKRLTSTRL
# Chain of Serine/threonine-protein kinase N2 (Homo sapiens) (Q16513 whole entry, looked up): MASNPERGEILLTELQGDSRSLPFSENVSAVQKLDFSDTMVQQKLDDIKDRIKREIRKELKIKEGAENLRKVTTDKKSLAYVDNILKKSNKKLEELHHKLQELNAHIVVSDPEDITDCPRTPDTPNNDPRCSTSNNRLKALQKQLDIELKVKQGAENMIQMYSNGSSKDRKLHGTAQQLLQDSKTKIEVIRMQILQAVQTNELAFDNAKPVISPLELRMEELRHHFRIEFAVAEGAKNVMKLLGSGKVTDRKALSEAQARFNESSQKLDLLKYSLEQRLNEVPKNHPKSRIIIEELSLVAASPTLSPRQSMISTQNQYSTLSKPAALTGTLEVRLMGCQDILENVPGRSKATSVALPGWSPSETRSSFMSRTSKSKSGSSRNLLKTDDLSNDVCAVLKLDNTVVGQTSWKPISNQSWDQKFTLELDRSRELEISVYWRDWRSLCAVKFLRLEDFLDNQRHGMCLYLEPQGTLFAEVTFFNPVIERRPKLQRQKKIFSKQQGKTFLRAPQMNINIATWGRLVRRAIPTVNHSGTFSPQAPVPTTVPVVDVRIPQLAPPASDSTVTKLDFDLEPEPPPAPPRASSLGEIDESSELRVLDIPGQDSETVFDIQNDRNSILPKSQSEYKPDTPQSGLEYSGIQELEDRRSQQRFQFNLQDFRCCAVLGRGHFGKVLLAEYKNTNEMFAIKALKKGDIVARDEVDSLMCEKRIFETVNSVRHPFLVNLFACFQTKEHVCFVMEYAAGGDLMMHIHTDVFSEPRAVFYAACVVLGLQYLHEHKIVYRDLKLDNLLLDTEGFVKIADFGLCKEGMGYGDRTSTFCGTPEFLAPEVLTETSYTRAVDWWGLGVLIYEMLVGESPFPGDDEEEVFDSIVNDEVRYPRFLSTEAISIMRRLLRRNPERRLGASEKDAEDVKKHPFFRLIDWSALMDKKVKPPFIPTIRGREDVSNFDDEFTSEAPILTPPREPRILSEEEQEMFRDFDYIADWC
# Chain of Mu-type opioid receptor (Homo sapiens) (P35372 whole entry): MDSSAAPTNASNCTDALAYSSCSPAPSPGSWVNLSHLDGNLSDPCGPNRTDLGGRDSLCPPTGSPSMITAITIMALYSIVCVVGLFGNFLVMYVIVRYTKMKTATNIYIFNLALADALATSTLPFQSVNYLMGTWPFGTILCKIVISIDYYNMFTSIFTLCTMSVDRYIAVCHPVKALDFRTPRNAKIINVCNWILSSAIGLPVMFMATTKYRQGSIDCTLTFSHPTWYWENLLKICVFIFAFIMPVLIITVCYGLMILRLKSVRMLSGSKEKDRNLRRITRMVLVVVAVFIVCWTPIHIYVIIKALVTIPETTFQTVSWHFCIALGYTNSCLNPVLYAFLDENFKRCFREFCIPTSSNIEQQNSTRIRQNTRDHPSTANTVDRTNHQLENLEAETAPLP
# Chain of Serine/threonine-protein kinase D2 (Homo sapiens) (Q9BZL6 whole entry): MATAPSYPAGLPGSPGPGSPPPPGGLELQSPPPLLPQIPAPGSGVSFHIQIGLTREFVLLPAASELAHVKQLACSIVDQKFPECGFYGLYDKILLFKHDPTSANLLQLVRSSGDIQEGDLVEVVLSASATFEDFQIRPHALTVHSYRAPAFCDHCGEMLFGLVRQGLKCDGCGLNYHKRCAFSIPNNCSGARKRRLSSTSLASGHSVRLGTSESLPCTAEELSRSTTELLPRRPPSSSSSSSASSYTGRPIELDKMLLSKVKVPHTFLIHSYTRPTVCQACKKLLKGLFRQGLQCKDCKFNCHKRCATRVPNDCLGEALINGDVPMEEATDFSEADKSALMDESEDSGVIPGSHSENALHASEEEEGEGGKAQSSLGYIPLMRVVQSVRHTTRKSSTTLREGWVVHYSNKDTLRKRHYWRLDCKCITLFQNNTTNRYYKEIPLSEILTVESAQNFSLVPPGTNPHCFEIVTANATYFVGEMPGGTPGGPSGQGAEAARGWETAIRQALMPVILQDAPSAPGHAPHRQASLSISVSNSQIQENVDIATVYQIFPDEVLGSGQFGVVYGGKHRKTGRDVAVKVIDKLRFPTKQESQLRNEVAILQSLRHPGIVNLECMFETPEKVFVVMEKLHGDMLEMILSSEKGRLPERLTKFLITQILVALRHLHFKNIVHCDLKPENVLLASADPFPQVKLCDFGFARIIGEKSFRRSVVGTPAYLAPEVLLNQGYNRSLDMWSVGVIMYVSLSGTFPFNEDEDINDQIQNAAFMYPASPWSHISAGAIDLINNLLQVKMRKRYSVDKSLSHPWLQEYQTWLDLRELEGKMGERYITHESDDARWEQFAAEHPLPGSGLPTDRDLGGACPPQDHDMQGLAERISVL
# Chain of Mitogen-activated protein kinase 3 (Homo sapiens) (P27361 whole entry): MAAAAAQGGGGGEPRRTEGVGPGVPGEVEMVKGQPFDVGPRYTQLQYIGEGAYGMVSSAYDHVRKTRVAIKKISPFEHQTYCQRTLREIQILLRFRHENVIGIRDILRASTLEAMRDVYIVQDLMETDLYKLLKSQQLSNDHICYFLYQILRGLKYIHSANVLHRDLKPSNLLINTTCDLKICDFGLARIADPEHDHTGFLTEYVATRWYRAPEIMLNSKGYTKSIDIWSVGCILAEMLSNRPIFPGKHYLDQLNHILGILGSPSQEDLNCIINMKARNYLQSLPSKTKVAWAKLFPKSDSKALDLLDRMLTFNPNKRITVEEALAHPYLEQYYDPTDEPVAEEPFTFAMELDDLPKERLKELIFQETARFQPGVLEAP
# Chain of Serine/threonine-protein kinase NIM1 (Homo sapiens) (Q8IY84 whole entry): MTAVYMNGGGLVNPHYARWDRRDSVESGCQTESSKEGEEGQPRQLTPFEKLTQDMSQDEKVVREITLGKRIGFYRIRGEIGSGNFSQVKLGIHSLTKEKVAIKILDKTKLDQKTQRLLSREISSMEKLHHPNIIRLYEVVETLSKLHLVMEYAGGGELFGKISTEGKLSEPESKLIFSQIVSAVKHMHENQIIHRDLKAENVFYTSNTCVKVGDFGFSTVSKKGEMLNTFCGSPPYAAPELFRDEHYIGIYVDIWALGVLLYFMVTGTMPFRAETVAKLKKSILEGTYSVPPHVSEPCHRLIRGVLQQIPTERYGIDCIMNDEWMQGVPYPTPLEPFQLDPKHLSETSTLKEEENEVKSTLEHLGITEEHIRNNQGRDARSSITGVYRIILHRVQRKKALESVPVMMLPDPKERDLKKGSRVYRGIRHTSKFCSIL
# Chain of BMP-2-inducible protein kinase (Homo sapiens) (Q9NSY1 whole entry, looked up): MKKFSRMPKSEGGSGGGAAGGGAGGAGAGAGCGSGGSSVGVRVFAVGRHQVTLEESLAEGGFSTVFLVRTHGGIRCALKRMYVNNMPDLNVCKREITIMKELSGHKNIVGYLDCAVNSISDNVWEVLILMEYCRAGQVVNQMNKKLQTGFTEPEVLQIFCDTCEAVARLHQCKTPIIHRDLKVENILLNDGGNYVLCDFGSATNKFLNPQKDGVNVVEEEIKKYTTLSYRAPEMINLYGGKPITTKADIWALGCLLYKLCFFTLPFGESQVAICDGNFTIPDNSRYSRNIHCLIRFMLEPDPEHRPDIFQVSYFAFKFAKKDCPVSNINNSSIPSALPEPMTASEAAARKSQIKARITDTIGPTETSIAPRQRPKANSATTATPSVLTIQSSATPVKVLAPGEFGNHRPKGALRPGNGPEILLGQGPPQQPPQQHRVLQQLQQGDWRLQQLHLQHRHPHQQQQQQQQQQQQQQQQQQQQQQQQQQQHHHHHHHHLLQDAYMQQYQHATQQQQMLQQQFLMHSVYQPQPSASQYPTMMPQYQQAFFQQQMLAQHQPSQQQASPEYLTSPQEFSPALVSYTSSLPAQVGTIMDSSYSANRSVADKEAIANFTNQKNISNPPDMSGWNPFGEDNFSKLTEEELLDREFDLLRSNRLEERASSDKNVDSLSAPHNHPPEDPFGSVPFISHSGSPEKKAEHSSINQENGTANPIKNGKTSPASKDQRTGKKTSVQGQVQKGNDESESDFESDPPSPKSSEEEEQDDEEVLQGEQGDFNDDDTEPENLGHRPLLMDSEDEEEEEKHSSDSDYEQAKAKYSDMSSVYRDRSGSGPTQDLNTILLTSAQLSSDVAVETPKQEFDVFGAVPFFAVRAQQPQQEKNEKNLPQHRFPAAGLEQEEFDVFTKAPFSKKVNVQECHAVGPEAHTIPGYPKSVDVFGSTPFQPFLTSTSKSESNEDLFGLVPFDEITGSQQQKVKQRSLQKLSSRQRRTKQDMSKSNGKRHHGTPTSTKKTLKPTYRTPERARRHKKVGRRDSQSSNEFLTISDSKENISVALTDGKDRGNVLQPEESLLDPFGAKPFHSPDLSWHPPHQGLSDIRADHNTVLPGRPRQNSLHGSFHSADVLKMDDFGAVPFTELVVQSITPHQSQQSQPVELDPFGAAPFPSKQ
structure (smiles),measurement,setting,value
C[C@H](c1cccc(C#N)c1)n1cc(Cl)cc(C(N)=O)c1=N [(R)-9s],residual activity,[1],100%
same,residual activity,[2],88%
same,residual activity,[3],76%
same,residual activity,[4],100%
same,residual activity,[5],100%
same,residual activity,[6],95%
same,residual activity,[7],75%
same,residual activity,[8],100%
same,residual activity,[9],82%
same,residual activity,[10],100%
same,residual activity,[11],76%
same,residual activity,[12],87%
same,residual activity,[13],97%
same,residual activity,[14],0%
same,residual activity,[15],100%
same,residual activity,[16],100%
same,residual activity,[17],90%
same,residual activity,[18],81%
same,residual activity,[19],76%
same,residual activity,[20],85%
same,residual activity,[21],88%
same,residual activity,[22],88%
same,residual activity,[23],84%
same,residual activity,[24],100%
same,residual activity,[25],100%
same,residual activity,[26],94%
same,residual activity,[27],84%
same,residual activity,[28],100%
same,residual activity,[29],100%
same,residual activity,[30],100%
same,residual activity,[31],58%
same,residual activity,[32],100%
same,residual activity,[33],69%
same,residual activity,[34],92%
same,residual activity,[35],97%
same,residual activity,[36],62%
same,residual activity,[37],100%
same,residual activity,[38],100%
same,residual activity,[39],88%
same,residual activity,[40],100%
same,residual activity,[41],100%
same,residual activity,[42],66%
same,residual activity,[43],89%
same,inhibition,[44],-5.45%
same,inhibition,[45],-7.87%
same,inhibition,[46],53.6%
C[C@@H](c1cccc(C#N)c1)n1cc(Cl)cc(C(N)=O)c1=N [(S)-9s],residual activity,[1],82%
same,residual activity,[2],96%
same,residual activity,[3],82%
same,residual activity,[4],93%
same,residual activity,[5],100%
same,residual activity,[6],85%
same,residual activity,[7],93%
same,residual activity,[8],100%
same,residual activity,[9],79%
same,residual activity,[10],100%
same,residual activity,[11],98%
same,residual activity,[12],100%
same,residual activity,[13],100%
same,residual activity,[14],100%
same,residual activity,[15],100%
same,residual activity,[16],98%
same,residual activity,[17],92%
same,residual activity,[18],78%
same,residual activity,[19],81%
same,residual activity,[20],82%
same,residual activity,[21],100%
same,residual activity,[22],96%
same,residual activity,[23],96%
same,residual activity,[24],88%
same,residual activity,[25],92%
same,residual activity,[26],79%
same,residual activity,[27],97%
same,residual activity,[28],100%
same,residual activity,[29],100%
same,residual activity,[30],100%
same,residual activity,[31],91%
same,residual activity,[32],87%
same,residual activity,[33],80%
same,residual activity,[34],93%
same,residual activity,[35],93%
same,residual activity,[36],100%
same,residual activity,[37],96%
same,residual activity,[38],100%
same,residual activity,[39],100%
same,residual activity,[40],88%
same,residual activity,[41],87%
same,residual activity,[42],100%
same,residual activity,[43],97%
same,inhibition,[44],-6.83%
same,inhibition,[45],-3.33%
same,inhibition,[46],20.7%
